What all share (format): cell-based, human
One assay relates to RTP/Drg1 protein. Briefly: Western blot of RTP/Drg1 protein in MDA-MB-231 cells. The following applies: for levels of RTP/Drg1 protein: 20% oxygen, up to 72 h, 100 μM cobalt chloride, 30 mM Tiron or 100 μM DFO; for reduction in RTP/Drg1 protein levels (hypoxic up-regulation), densitometry: 1% oxygen + 30% CO, 24 h; for effect of CO on up-regulation of RTP/Drg1 protein induced by cobalt chloride, Tiron and DFO: hypoxic conditions with CO. Here is the method: (§1) To determine whether hypoxia regulates the expression of certain genes (e.g., PAI-1, uPAR, RTP/Drg1) via an iron-containing heme protein, cells were cultured for up to 72 h at 20% oxygen in the presence or absence of either 100 μM cobalt chloride, or 30 mM sodium 4,5-dihydroxybenzene-1,3-disulfonate (Tiron), or 100 μM desferrioxamine mesylate (DFO) (Sigma Chemical CO., St. Louis, Mo.). Further confirmation of the role of a heme protein in hypoxic responses can be achieved by culturing cells under hypoxia in the presence of carbon monoxide, which maintains the heme protein in the oxy state and thereby blocks heme protein-mediated hypoxic responses. Thus, cells were also cultured for 24 h at 37° C. under hypoxic conditions in the presence of 30% carbon monoxide.
Western Blot Analysis. To examine levels of RTP/Drg1 protein, cells were lysed with buffer containing 40 mM HEPES pH 7.2, 100 mM NaCl, 20% glycerol, 0.1 mM EDTA pH 8.0, 0.2% Triton X-100 (polyoxyethylene (10) isooctylphenyl ether), 1 mM DTT, and 2 mM PMSF, and centrifuged briefly at 4° C. The supernatants were collected and stored at −80° C. until use. SDS-PAGE was performed and resolved proteins were transferred to Immobilon-P membranes (Millipore Corp., Bedford, Mass.) using a semi-dry transfer cell (Bio-Rad Laboratories, Mississauga, ON). Membranes were blocked by incubation overnight at 4° C. in a PBS-buffered solution containing 0.01% Tween 20 (polyoxyethylene(20) sorbitan monolaurate) (PBS-T) and 5% casein. The blots were then incubated with polyclonal rabbit anti-Drg1 antiserum followed by incubation with a peroxidase labeled goat anti-rabbit IgG secondary antibody (Vector Lab. Inc., Burlingame, Calif.). Antigen was detected by enhanced chemiluminescence (ECL, Amersham Canada Inc., Oakville, ON) and exposure of the membrane onto Dupont Reflection NEF film (Dupont Canada, Inc., Mississauga ON).
In general terms: In western blotting, separated proteins are transferred to a membrane and probed.

The test system of a further assay is RTP/Drg1 mRNA. The assay is described as follows: Northern blot of RTP/Drg1 mRNA in MDA-MB-231 cells. The following applies: for levels of RTP/Drg1 mRNA: 20% oxygen, up to 72 h, 100 μM cobalt chloride, 30 mM Tiron or 100 μM DFO; for effect on hypoxic up-regulation of RTP/Drg1 mRNA: 1% oxygen + 30% CO, 24 h; for effect of CO on up-regulation of RTP/Drg1 mRNA induced by cobalt chloride, Tiron and DFO: hypoxic conditions with CO. Here is the method: as §1
(§2) Northern Blot Analysis. Total RNA was isolated from cell lines as described above. Aliquots of 20 μg were denatured and subjected to electrophoresis in 1% agarose-formaldehyde gels (Sambrook, J., Fritsch, E. F., and Maniatis, T. Molecular Cloning: A Laboratory Manual, Cold Spring Harbor Laboratory, Cold Spring Harbor, N.Y. (1989)). RNA was transferred to nylon membranes (Micron Separations, Inc., Westboro, Mass.). After prehybridization at 42° C. for 2-3 h in 50% formamide, 5×Denhardt's solution, 0.5% sodium dodecyl sulfate (SDS), 6×SSC (1×SSC: 0.15M NaCl, 15 mM sodium citrate, pH 7.0), and 100 μg/mL denatured salmon sperm DNA, membranes were hybridized for a period of time of overnight (˜18 h) to about 72 h at 42° C. with a cDNA probe (e.g., RTP/Drg1, PAI-1 (PAI-1 cDNA provided by Dr. Keith McCrae, Temple University School of Medicine, Philadelphia, Pa.), uPAR (Higazi A, et al., J Biol Chem 266:12752, (1995)) pre-labeled with [^32P]-dCTP using a Pharmacia Oligolabelling kit (Pharmacia Biotech, Piscataway, N.J.). The hybridization solution contained 6×SSC, 0.5% SDS, 100 μg/mL denatured salmon sperm DNA, 50% formamide and cDNA probe. After hybridization, the membranes were washed with 2×SSC and 0.5% SDS at room temperature for 15 min, 2×SSC and 0.1% SDS at room temperature for 15 min, and 0.1×SSC and 0.5% SDS for 30 min. Dupont Reflection NEF film (Dupont Canada, Inc., Mississauga, ON) was exposed to the membranes for 1-3 days at −80° C. Bands on radiographic film were analyzed using a SigmaGel gel analysis software package (Jandel Scientific Software, San Rafael, Calif.).

Another assay deals with uPAR mRNA. The assay is described as follows: Northern blot of uPAR mRNA in HTR-8/SVneo cells. The following applies: 24 h. Here is the method: as §1, with “Thus, cells were also cultured for 24 h at 37° C. under hypoxic conditions in the presence of 30% carbon monoxide.” left out
Northern Blot Analysis. Total RNA was isolated from cell lines as described above. […] RNA was transferred to nylon membranes (Micron Separations, Inc., Westboro, Mass.). […] The hybridization solution contained 6×SSC, 0.5% SDS, 100 μg/mL denatured salmon sperm DNA, 50% formamide and cDNA probe. After hybridization, the membranes were washed with 2×SSC and 0.5% SDS at room temperature for 15 min, 2×SSC and 0.1% SDS at room temperature for 15 min, and 0.1×SSC and 0.5% SDS for 30 min. Dupont Reflection NEF film (Dupont Canada, Inc., Mississauga, ON) was exposed to the membranes for 1-3 days at −80° C. Bands on radiographic film were analyzed using a SigmaGel gel analysis software package (Jandel Scientific Software, San Rafael, Calif.).

A further assay has as its system PAI-1 mRNA. Briefly: Northern blot of PAI-1 mRNA in HTR-8/SVneo cells. The following applies: for increase in PAI-1 mRNA (3.0-kb and 2.3-kb transcripts): 24 hours in the presence of compound. The method, then:
as §1, with “Thus, cells were also cultured for 24 h at 37° C. under hypoxic conditions in the presence of 30% carbon monoxide.” left out
as §2, with “After hybridization, the membranes were washed with 2×SSC and 0.5% SDS at room temperature for 15 min, 2×SSC and 0.1% SDS at room temperature for 15 min, and 0.1×SSC and 0.5% SDS for 30 min. Dupont Reflection NEF film (Dupont Canada, Inc., Mississauga, ON) was exposed to the membranes for 1-3 days at −80° C.” left out, “Calif.). […]” for “Calif.).”

The mark [1] stands for this setting: standard (20% O2) conditions with compound.

“Also recorded” adds a separate entry of the source.

Take `[Cl][Co][Cl]` [cobalt chloride]: the “levels of RTP/Drg1 protein” value with RTP/Drg1 protein is given as “time-dependent increases in RTP/Drg1 protein”. Further, in the assay with RTP/Drg1 mRNA, the “levels of RTP/Drg1 mRNA” value is given as “time-dependent increases in RTP/Drg1 mRNA”. In addition, in the assay with uPAR mRNA (setting [1]), the “increase in uPAR mRNA vs standard conditions alone” value turned out to be 3.5 fold. Also, in the assay with PAI-1 mRNA, the “increase in PAI-1 mRNA (3.0-kb and 2.3-kb transcripts)” value was “about 2 fold”.
On the same counts, the results for `O=S(=O)([O-])c1cc(O)c(O)c(S(=O)(=O)[O-])c1.[Na+].[Na+]` [Tiron, sodium 4,5-dihydroxybenzene-1,3-disulfonate] are “time-dependent increases in RTP/Drg1 protein”, “time-dependent increases in RTP/Drg1 mRNA”, greater than 10 fold and “substantial increase”.
As to `[C-]#[O+]` [carbon monoxide], the “reduction in RTP/Drg1 protein levels (hypoxic up-regulation), densitometry” value in the assay with RTP/Drg1 protein is on record as “abrogated”; in the assay on RTP/Drg1 protein (listed as CO), 57%. For the same compound, the “effect of CO on up-regulation of RTP/Drg1 protein induced by cobalt chloride, Tiron and DFO” value with RTP/Drg1 protein is reported as “did not inhibit”; in the assay on RTP/Drg1 protein (listed as CO), “unable to inhibit”. The results for the “effect on hypoxic up-regulation of RTP/Drg1 mRNA” value in the assay with RTP/Drg1 mRNA and in the assay on RTP/Drg1 mRNA (listed as CO) were “abrogated” and “substantial decrease in mRNA levels”, respectively. Moreover, the “effect of CO on up-regulation of RTP/Drg1 mRNA induced by cobalt chloride, Tiron and DFO” value is “did not inhibit” with RTP/Drg1 mRNA and “unable to inhibit” in the assay on RTP/Drg1 mRNA (listed as CO). Also, the “reduction of hypoxia-mediated increase in uPAR mRNA” value with uPAR mRNA (1% O2 + 20% carbon monoxide) is recorded as 35%. In addition, the “increase in uPAR mRNA vs standard conditions alone” value in the assay with uPAR mRNA (hypoxic (1% O2) conditions in the presence of 20% carbon monoxide) was determined as 1.8 fold. In the assay on PAI-1 mRNA (1% oxygen + 20% carbon monoxide, 24 hours), the “effect on hypoxia-mediated increase in PAI-1 mRNA levels” value is on record as “prevented most of the hypoxia-mediated increase in PAI-1 mRNA levels; also recorded: abolished the effect of hypoxia on PAI-1 mRNA levels”.

The values are drawn from patent publication US6376169B1, “Method for diagnosing a vascular condition” (Queens University at Kingston, priority 1998, dated 2002).
